# Test results from paper PMC6155437 (Molecules : A Journal of Synthetic Chemistry and Natural …, 2017).
# Entries after “also recorded” stand apart in the source; their conditions may differ.
# Legend:
# Format in all cases: in vitro ADME
# CYP3A4 = CYP3A4 (Homo sapiens, UniProt P08684); assay: CYP3A4 midazolam 1′-hydroxylase inhibition in human liver microsomes; set-up: tissue Corning Life Sciences; host or cells: pooled human liver microsomes (150 donors)
# Description: (§1) After a 3-min pre-incubation at 37 °C, the reactions were initiated by addition of NADPH and incubation proceeded for 15 min at 37 °C in a shaking water bath. […] The incubation mixtures were centrifuged (13,000× g, 4 min, 4 °C). All assays were performed in triplicate and mean values were used in calculations.
# (§2) Each reaction was initiated by adding the seven-CYP probe substrate cocktail.
# The reactions were initiated by addition of NADPH at 37 °C and stopped after 10 min by placing the incubation tubes on ice and adding 100 μL of ice-cold methanol containing an internal standard (d9-1-hydroxybufuralol). The incubation mixtures were centrifuged (13,000× g, 4 min, 4 °C) and then 50 μL of the supernatant was diluted with 50 μL of water. Aliquots (5 μL) of the diluted supernatants were analyzed by LC-MS/MS.
# (§3) The metabolites formed from CYP substrates were quantified simultaneously by a LC-MS/MS method described previously. The ESI source settings in positive-ion mode for metabolite ionization were: capillary voltage, 4200 V; vaporizer temperature, 350 °C; capillary temperature, 330 °C; sheath gas pressure, 35 psi; and auxiliary gas pressure, 15 psi. Quantification was performed by selected reaction monitoring (SRM) of the [M + H]^+ ion and the related product ion for each metabolite: acetaminophen, 152.1 > 110.3; N-desethylamodiaquine, 328.1 > 283.0; 7-hydroxycoumarin, 163.0 > 107.2; 4-hydroxybupropion, 256.1 > 238.0; 4′-hydroxydiclofenac, 312.0 > 231.1; 4′-hydroxy-mephenytoin; 235.1 > 150.1; 1′-hydroxybufuralol, 278.1 > 186.1; 1′-hydroxymidazolam, 341.9 > 324.0; ^13C2,^15N-acetaminophen 155.1 > 111.2; and d9-1′-hydroxybufuralol, 287.2 > 187.0. Analytical data were processed using Xcalibur software (version 2.1, Thermo Scientific).
# (§4) The apparent kinetic parameters for inhibitory potential (Ki and kinact values) and inhibition mode were estimated from the fitted curves using the Enzyme Kinetics program (ver. 1.1; Systat Software Inc., San Jose, CA, USA).
# CYP2A6 = biological target: T1, CYP2A6 (Homo sapiens, UniProt P11509); assay: CYP2A6 coumarin 7-hydroxylase inhibition in pooled human liver microsomes (substrate cocktail, LC-MS/MS); conditions: at 50 µM
# T1 construct: pooled human liver microsomes (0.2 mg/mL); tissue Corning Life Sciences; host or cells: pooled human liver microsomes (150 donors)
# T1 sequence (P11509 1-494): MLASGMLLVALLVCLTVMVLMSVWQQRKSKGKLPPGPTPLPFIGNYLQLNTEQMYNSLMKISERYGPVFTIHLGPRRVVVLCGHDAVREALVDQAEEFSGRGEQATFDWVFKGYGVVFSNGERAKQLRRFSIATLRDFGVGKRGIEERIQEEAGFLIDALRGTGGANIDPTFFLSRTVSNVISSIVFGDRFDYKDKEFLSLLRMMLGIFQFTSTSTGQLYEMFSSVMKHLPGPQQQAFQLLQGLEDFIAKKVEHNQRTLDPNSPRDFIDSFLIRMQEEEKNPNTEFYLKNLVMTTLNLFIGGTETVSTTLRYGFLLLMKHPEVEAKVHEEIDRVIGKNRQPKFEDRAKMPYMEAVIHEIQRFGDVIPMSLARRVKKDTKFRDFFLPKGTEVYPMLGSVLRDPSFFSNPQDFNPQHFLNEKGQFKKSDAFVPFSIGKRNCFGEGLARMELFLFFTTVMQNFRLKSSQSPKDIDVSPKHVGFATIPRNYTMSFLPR
# Description: as §1, §2
# The metabolites formed from CYP substrates were quantified simultaneously by a LC-MS/MS method described previously. The ESI source settings in positive-ion mode for metabolite ionization were: capillary voltage, 4200 V; vaporizer temperature, 350 °C; capillary temperature, 330 °C; sheath gas pressure, 35 psi; and auxiliary gas pressure, 15 psi. […] Analytical data were processed using Xcalibur software (version 2.1, Thermo Scientific).
# as §4
# CYP2C8 = biological target: T2, CYP2C8 (Homo sapiens, UniProt P10632); assay: CYP2C8 amodiaquine N-deethylase inhibition and mechanism-based inactivation in human liver microsomes; conditions: for IC50: Amodiaquine N-deethylase
# T2 construct: tissue Corning Life Sciences; host or cells: pooled human liver microsomes (150 donors)
# T2 sequence (P10632 1-490): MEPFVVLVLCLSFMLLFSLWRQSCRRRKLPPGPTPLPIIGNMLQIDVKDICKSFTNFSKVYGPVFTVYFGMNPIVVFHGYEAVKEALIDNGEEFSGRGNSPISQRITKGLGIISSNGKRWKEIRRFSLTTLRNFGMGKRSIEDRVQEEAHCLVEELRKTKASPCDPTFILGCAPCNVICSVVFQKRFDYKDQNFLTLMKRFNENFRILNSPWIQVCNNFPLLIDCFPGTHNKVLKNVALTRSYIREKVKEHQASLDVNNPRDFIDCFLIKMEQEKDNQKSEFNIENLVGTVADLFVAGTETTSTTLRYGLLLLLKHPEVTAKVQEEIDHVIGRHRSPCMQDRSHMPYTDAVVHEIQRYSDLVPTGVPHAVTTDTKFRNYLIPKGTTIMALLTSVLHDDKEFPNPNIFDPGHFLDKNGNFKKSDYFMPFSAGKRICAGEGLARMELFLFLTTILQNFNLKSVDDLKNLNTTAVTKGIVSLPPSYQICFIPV
# Description: as §1, §2
# The second reaction was terminated after incubation for 10 min by adding 100-µL amounts of ice-cold methanol containing d9-1′-hydroxybufuralol. The incubation mixtures were centrifuged (13,000× g, 4 min, 4 °C), and then 50 µL of each supernatant was diluted with 50 µL of water. Aliquots (5 µL) of the diluted supernatants were analyzed by LC-MS/MS.
# as §3, §4
# Chain of CYP3A4 (P08684 whole entry): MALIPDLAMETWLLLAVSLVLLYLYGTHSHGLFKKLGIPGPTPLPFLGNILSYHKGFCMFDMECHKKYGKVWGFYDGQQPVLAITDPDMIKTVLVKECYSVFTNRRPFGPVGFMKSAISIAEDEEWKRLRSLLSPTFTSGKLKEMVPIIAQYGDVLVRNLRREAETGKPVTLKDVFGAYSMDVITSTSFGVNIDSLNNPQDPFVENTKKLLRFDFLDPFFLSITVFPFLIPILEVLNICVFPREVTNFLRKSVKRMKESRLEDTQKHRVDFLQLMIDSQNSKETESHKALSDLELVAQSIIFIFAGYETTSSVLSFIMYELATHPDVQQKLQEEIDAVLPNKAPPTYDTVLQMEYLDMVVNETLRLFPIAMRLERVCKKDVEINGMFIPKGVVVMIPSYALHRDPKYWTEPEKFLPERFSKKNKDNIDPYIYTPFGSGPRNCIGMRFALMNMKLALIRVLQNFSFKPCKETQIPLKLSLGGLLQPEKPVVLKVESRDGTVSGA
compound,measurement,setting,value
"O=C(c1cccc2ccccc12)c1cn(CCCCCF)c2ccccc12 [AM-2201, 1-(5-fluoropentyl-1H-indol-3-yl)-(naphthalene-1-yl)methanone]",Ki,CYP3A4,4 µM
same,Inhibition Mode,CYP3A4; CYP3A4 midazolam 1′-hydroxylation,competitively inhibited; also recorded: competitive
same,IC50,"CYP3A4; IC50 (μM) No Preincubation, Midazolam 1′-hydroxylase, CYP3A4, human liver microsomes, 2.5 μM midazolam",6.9 µM
same,IC50,"CYP3A4; IC50 (μM) With Preincubation, Midazolam 1′-hydroxylase, CYP3A4, 30 min preincubation with NADPH",3.8 µM
same,IC50,"CYP3A4; IC50, CYP3A4-catalyzed midazolam 1′-hydroxylation, abstract",4 µM
same,inhibition of CYP2A6-mediated coumarin 7-hydroxylation,CYP2A6,negligibly inhibited
same,Ki,CYP2C8,2.1 µM
same,Inhibition Mode,CYP2C8; CYP2C8 amodiaquine N-deethylation,mechanism-based inhibitor
same,IC50,"CYP2C8; IC50 (μM) No Preincubation, CYP2C8, human liver microsomes, 2.5 μM amodiaquine",53.8 µM
same,IC50,"CYP2C8; IC50 (μM) With Preincubation, CYP2C8, 30 min preincubation with NADPH",6.9 µM
